Reference: article PMC5664067, “Investigating the Interaction of Cyclic RGD Peptidomimetics with αVβ6 Integrin by Biochemical and Molecular Docking Studies” (Cancers, 2017)
Read-outs that look alike come from different tables or passages of the source.

Key:
integrin αVβ6 = system: integrin αVβ6; parameters: method as in PMID 28074920; settings: immobilized LAP and soluble integrin; cited from earlier work
[1] = target: T1, Recombinant human integrin αVβ6 receptor (Homo sapiens, UniProt P06756+P18564); experiment: Competitive solid-phase binding assay: inhibition of biotinylated fibronectin binding to isolated αVβ6 integrin; settings: for IC50 (αVβ6)/IC50 (αVβ3): selectivity ratio; for αVβ6 IC50: 50% inhibition of biotinylated fibronectin (1 μg/mL) binding to isolated αVβ6, mean ± SD of triplicate determinations
T1 construct: purchased R&D Systems
Description: The assay was performed according to previously reported procedures with slight modifications.
Recombinant human integrin αVβ6 receptor (R&D Systems, Minneapolis, MN, USA) was diluted to 1.0 μg/mL in coating buffer containing 20 mM Tris-HCl (pH 7.4), 150 mM NaCl, 1 mM MnCl2, 2 mM CaCl2, and 1 mM MgCl2. An aliquot of diluted receptor (100 μL/well) was added to 96-well microtiter plates (Nunc MaxiSorp, Thermo Fisher Scientific, Roskilde, Denmark) and incubated overnight at 4 °C. The plates were incubated with blocking solution (coating buffer plus 1% bovine serum albumin) for additional 2 h at room temperature to block nonspecific binding. After washing twice with blocking solution, plates were incubated shaking in the dark for 3 h at room temperature, with various concentrations (10^−4–10^−11 M) of test compounds in the presence of 1 μg/mL biotinylated fibronectin (Molecular Innovations, Novi, MI, USA). Biotinylation was performed using an EZ-Link Sulfo-NHS-Biotinylation kit (Pierce, Rockford, IL, USA). After washing three times, the plates were incubated shaking for 1 h, at room temperature, with streptavidin-biotinylated peroxidase complex (Amersham Biosciences, Uppsala, Sweden). After washing 3 times with blocking solution, plates were incubated with 100 μL/well of Substrate Reagent Solution (R&D Systems) for 30 min shaking in the dark, before stopping the reaction with the addition of 50 μL/well 2N H2SO4. Absorbance at 415 nm was read in a SynergyTM HT Multi-Detection Microplate Reader (BioTek Instruments, Inc., Winooski, VT, USA). Each data point represents the average of triplicate wells; data analysis was carried out by nonlinear regression analysis with GraphPad Prism software (GraphPad Software, Inc., La Jolla, CA, USA). Each experiment was repeated in triplicate.

[2] = system: FAK/Akt integrin-activated transduction signaling pathway; parameters: method as in PMID 25761230; settings: human glioblastoma cells; cited from earlier work
human glioblastoma cells = system: human glioblastoma cells; parameters: method as in PMID 25761230; settings: cited from earlier work
different cancer cells = system: different cancer cells; parameters: method as in PMID 25053992; settings: cited from earlier work
human endothelial cells = system: human endothelial cells; parameters: method as in PMID 25053992; settings: cited from earlier work
αVβ3 integrin [3] = target: T2, αVβ3 integrin (Homo sapiens, UniProt P05106+P06756); parameters: method as in PMID 22517378; settings: 50% inhibition of biotinylated vitronectin binding to αVβ3; cited from earlier work
αVβ3 integrin [4] = target: T2, αVβ3 integrin; experiment: Inhibition of biotinylated vitronectin binding to isolated αVβ3 integrin; settings: 50% inhibition of biotinylated vitronectin binding to isolated αVβ3; new RAD peptidomimetic tested for this paper

T1 sequence (P06756 31-889 limits assumed): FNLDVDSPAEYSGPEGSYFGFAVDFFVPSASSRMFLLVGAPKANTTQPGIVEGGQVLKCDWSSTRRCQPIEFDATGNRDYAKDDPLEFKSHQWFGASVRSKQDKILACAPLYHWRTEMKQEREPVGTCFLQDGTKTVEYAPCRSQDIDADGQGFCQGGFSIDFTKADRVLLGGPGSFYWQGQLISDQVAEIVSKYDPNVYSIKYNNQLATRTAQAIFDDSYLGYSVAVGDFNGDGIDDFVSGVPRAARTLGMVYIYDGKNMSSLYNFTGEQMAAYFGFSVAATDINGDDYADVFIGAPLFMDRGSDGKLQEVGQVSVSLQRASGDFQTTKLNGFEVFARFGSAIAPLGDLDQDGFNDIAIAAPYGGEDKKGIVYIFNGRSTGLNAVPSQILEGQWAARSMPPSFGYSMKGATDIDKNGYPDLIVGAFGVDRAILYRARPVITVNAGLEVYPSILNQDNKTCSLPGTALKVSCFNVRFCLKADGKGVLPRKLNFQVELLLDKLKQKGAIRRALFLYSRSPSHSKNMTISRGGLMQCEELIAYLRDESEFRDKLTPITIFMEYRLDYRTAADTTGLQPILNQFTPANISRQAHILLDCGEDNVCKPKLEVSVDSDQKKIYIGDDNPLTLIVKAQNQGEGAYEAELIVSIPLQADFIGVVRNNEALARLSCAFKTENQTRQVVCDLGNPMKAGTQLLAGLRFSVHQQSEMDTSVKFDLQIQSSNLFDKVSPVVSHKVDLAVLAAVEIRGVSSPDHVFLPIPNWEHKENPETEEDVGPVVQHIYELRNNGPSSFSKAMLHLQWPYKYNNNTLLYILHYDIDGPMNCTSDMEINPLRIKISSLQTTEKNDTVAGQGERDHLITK
T1 sequence (P06756 891-992 partner limits assumed): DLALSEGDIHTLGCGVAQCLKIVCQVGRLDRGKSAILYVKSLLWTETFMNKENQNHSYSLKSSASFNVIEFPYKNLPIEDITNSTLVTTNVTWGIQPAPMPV
T1 sequence (P18564 22-707 limits assumed): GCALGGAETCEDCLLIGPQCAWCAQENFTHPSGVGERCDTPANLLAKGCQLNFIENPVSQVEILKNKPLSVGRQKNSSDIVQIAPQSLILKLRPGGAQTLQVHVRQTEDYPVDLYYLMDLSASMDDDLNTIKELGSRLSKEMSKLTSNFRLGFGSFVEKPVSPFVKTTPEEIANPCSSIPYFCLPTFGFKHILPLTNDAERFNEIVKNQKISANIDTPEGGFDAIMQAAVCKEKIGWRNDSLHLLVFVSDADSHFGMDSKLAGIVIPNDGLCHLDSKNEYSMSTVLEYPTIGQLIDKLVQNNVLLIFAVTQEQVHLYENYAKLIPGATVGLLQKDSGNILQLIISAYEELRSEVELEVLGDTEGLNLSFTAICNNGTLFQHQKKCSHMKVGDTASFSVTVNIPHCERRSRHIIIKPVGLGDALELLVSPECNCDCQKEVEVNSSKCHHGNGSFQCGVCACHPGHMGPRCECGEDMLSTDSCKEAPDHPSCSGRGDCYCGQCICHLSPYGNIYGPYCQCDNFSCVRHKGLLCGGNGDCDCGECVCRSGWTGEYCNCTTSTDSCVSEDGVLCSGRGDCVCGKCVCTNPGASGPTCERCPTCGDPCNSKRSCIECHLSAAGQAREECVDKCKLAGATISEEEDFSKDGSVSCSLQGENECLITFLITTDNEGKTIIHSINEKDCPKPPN
T2 sequence (P06756 31-889 limits assumed): as the sequence (P06756 31-889 limits assumed) above
T2 sequence (P06756 891-1048 partner limits assumed): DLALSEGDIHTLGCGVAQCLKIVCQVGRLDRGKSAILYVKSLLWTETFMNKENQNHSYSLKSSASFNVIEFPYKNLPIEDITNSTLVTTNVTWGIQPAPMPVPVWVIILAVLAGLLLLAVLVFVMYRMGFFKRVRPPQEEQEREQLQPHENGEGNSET
T2 sequence (P05106 27-788): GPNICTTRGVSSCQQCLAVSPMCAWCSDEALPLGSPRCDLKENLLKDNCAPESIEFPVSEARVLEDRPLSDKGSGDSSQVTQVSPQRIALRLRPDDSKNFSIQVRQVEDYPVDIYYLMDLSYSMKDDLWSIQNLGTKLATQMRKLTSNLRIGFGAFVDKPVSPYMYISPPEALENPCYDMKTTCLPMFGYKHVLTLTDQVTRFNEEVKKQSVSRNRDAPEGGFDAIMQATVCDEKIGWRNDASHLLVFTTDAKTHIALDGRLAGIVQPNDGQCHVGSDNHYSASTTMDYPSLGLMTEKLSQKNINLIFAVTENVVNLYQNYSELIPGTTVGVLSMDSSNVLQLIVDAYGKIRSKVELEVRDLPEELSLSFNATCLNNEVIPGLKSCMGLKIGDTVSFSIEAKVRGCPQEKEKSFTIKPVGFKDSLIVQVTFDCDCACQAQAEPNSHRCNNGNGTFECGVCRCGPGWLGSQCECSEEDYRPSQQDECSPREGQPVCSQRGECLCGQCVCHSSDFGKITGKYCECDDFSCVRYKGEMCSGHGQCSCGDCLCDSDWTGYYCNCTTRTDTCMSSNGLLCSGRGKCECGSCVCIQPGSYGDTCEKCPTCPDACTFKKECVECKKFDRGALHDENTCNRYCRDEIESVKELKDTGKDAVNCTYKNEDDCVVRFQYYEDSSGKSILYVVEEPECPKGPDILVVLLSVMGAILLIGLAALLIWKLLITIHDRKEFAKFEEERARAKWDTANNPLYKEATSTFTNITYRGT

Row | SMILES | IC50 [1] [µM] | IC50 (αVβ6)/IC50 (αVβ3) [1] | further results
1 | CC(C)[C@H]1C(=O)N[C@@H](CCCNC(=N)N)C(=O)NCC(=O)N[C@@H](CC(=O)O)C(=O)N[C@H](Cc2ccccc2)C(=O)N1C [Compound 1a, cyclo[RGDf(N-Me)V]] |  |  | αVβ6 IC50 (integrin αVβ6): micromolar
2 | N=C(N)NCCC[C@@H]1NC(=O)C[C@@H]2NC(=O)[C@@H](CNC(=O)[C@H](CC(=O)O)NC(=O)CNC1=O)N(Cc1ccccc1)C2=O [Compound 2] | 0.345 ± 0.001 | 108 | 
3 | N=C(N)NCCC[C@@H]1NC(=O)C[C@H]2NC(=O)[C@H](CNC(=O)[C@H](CC(=O)O)NC(=O)CNC1=O)N(Cc1ccccc1)C2=O [Compound 3] | 0.0956 ± 0.0246 | 21 | effects on the FAK/Akt integrin-activated transduction signaling pathway [2]: inhibitory effects; effects on integrin-mediated cell infiltration processes (human glioblastoma cells): inhibitory effects; inhibition of cell adhesion (different cancer cells): significantly inhibit; inhibition of angiogenesis induced by pro-angiogenic growth factors (human endothelial cells): significantly inhibit
4 | N=C(N)NCCC[C@@H]1NC(=O)C[C@H]2C(=O)N(Cc3ccccc3)[C@H](CNC(=O)[C@H](CC(=O)O)NC(=O)CNC1=O)C(=O)N2Cc1ccccc1 [Compound 5] | 0.173 ± 0.0525 |  | IC50 (αVβ3 integrin [3]): 0.0126 ± 0.005 µM
5 | CC1NC(=O)[C@H](CCCNC(=N)N)NC(=O)C[C@H]2NC(=O)[C@H](CNC(=O)[C@H](CC(=O)O)NC1=O)N(Cc1ccccc1)C2=O (some centres unmarked) [Compound 8, Cyclo[DKP-3-RAD]] |  | 3 | αVβ6 IC50 [1]: micromolar; αVβ3 IC50 (αVβ3 integrin [4]): micromolar

More lines, in order of falling IC50 [1], values ahead:

Row | IC50 [1] [µM] | IC50 (αVβ6)/IC50 (αVβ3) [1] | SMILES | further results
6 | 0.0953 ± 0.0049 |  | N=C(N)NCCC[C@@H]1NC(=O)C[C@H]2C(=O)N[C@H](CNC(=O)[C@H](CC(=O)O)NC(=O)CNC1=O)C(=O)N2Cc1ccccc1 [Compound 4] | 
7 | 0.0766 ± 0.0042 | 37 | N=C(N)NCCC[C@@H]1NC(=O)C[C@@H]2C(=O)N[C@@H](CNC(=O)[C@H](CC(=O)O)NC(=O)CNC1=O)C(=O)N2Cc1ccccc1 [Compound 6] | 
8 | 0.0023 ± 0.0008 |  | N=C(N)NCCC[C@@H]1NC(=O)C[C@@H]2C(=O)N(Cc3ccccc3)[C@@H](CNC(=O)[C@H](CC(=O)O)NC(=O)CNC1=O)C(=O)N2Cc1ccccc1 [Compound 7] | αVβ6 IC50 [1]: low nanomolar; αVβ3 IC50 (αVβ3 integrin [3]): subnanomolar
